In EP0414422A2, “2-Oxo-1-oxa-8-azaspiro [4,5] decane derivatives, processes for their preparation and pharmaceutical compositions thereof” (RICHTER GEDEON VEGYESZETI GYAR R.T., priority 1989, dated 1991):

How the values were obtained:
aggregated mice = assay: Protective effect against the amphetamine group toxicity on aggregated mice; type: in vivo; details: Mus musculus; male CFLP mice, p.o., one hour before 21 mg/kg d-amphetamine intraperitoneally; surviving animals counted after 24 hours; read-out: Protection against amph. ED₅₀
Experimental: (§1) Male CFLP mice with a body-weight of 18 to 25 g and male Hannover-Wistar rats with a body-weight of 160 to 180 g were used for the pharmacological investigations. The test compounds were orally administered in a 2% Tween-80 suspension. The pharmacological investigating methods used are described hereinafter.
1. Protective effect against the amphetamine group toxicity on aggregated mice
The method described in Arch. Int. Pharmacodyn. 163, 79 (1966) was used.
The mice were treated with various doses of the test substances. After one hour following the above treatment, the animals were intraperitoneally given 21 mg/kg of d-amphetamine and then the groups consisting of 10 animals each were tightly packed together in plexiglass boses of 15x15x10 cm in size. After 24 hours had elapsed following the amphetamine treatment the surviving animals were counted. The ED₅₀ values of the substances were calculated from the percentage of the surviving animals. The ED₅₀ value is the dose protecting 50% of the animals from death.

rats = assay: Inhibition of the conditioned avoidance response (CAR inhibition) on rats; type: in vivo; details: Rattus norvegicus, po; male Hannover-Wistar rats, p.o., treated 3 hours before the experiment; dose causing 50% inhibition of the conditioned avoidance response; read-out: CAR ED₅₀
Source text: as §1
2. Inhibition of the conditioned avoidance response (CAR inhibition) on rats
The method of D. Bovet et al. (Neuropsychopharmacology, ed. R. Rothlin Vol. 2, p. 142, Elsevier Publishing Co. N.Y. 1961) was used.
Male rats weighing 160 to 180 g were conditioned in an automated 6-channel Shuttle box for 10 days. Each daily session consisted of 50 cycles and each one cycle lasted for 40 seconds. Within a single cycle an intermittent light stimulus for 15 seconds as conditioned stimulus, and an electric stimulus of 0.8 mA for 10 seconds as unconditioned stimulus, were used with an intersignal time of 15 seconds. When an animal changed its half-court during the conditioned stimulus period, the stimulus was abolished and the footshock was avoided (conditioned avoidance response; abbreviated: CAR). Animals with a performance of at least 80% on the 8th to 10th days of conditioning were considered to be useful for the study. 3 hours before the experiment the animals were treated with various doses of the test substances and the ED₅₀ value, i.e. the dose causing an 50% inhibition of the conditioned avoidance response of the animals, was determined. Groups consisting of 10 animals each were used for each dose.

mice [1] = assay: Measurement of the spontaneous body temperature; type: in vivo; details: 30 mg/kg orally, rectal temperature 5 hours following treatment, related to untreated control animals
Experimental: as §1
3. Measurement of the spontaneous body temperature
Groups consisting of 10 mice each were orally treated with 30 mg/kg doses of the test substances. After treatment the rectal temperature of the male mice was determined each hour for 5 hours. The average values of temperature decrease related to the body temperature of the untreated control animals (37.1±0.8 °C) 5 hours following treatment are given in Table 1.

mice [2] = assay: Inhibition of the aggressive behaviour of the mice; type: in vivo; details: Mus musculus, po; male mice, p.o., 3 hours following the treatment, electric stimulation of 1 mA; read-out: Antiaggressive effect, ED₅₀
Experimental: as §1
4. Inhibition of the aggressive behaviour of the mice
The method described in J. Pharmacol. Expt. Therap. 125, 28 (1959) was used.
Pairs of male mice weighing 20 to 25 each were treated with the test compounds and then placed in cages. 3 hours following the treatment an aggressive behaviour was induced on the animals by using an electric stimulation of 1 mA current intensity. Each group consisted of 5 pairs of mice. The ED₅₀ values were calculated from the percentage of animal pairs showing no aggressive behaviour as a result of the treatment. (ED₅₀ value is the dose inhibiting the aggressive behaviour on 50% of the animals.)

Acute toxicity = details: male, Hannover-Wistar, rat, in vivo, po; rats, p.o., deaths observed for 14 days; read-out: LD₅₀
Experimental: as §1
Rats were treated with various doses of the test compounds. […] The LD₅₀ value, i.e. the dose causing the death of half of the animals, was determined from the percentage of the dead animals.

Structure (SMILES)	ED50 (aggregated mice)	ED50 (rats)	Decrease in the spontaneous temperature (mice [1])	ED50 (mice [2])	LD50 at 14 days (Acute toxicity)
C=C1N(CC)C(=O)OC12CCN(CCCN1c3ccccc3Sc3ccc(Cl)cc31)CC2 [B, 8-[3-(2-chloro-10H-phenothiazin-10-yl)propyl]-3-ethyl-4-methylene-2-oxo-1-oxa-3,8-diazaspiro[4,5]decane]	1.6 mg/kg	1.6 mg/kg	-7.4 C°	10.9 mg/kg	500 mg/kg
C=C1N(C)C(=O)OC12CCN(CCCN1c3ccccc3Sc3ccc(C(F)(F)F)cc31)CC2 [C, 3-methyl-4-methylene-2-oxo-8-[3-(2-trifluoromethyl-10H-phenothiazin-10-yl)propyl]-1-oxa-3,8-diazaspiro[4,5]decane]	0.7 mg/kg	1.9 mg/kg	-9.9 C°	1.2 mg/kg	235 mg/kg
CN(C)CCCN1c2ccccc2Sc2ccc(Cl)cc21 [CPZ, 2-chloro-10-(3-dimethylaminopropyl)phenothiazine, reference compound]	7.2 mg/kg	17.1 mg/kg	-7.9 C°	4.3 mg/kg	225 mg/kg
C=C1N(C)C(=O)OC12CCN(CCCN1c3ccccc3Sc3ccc(Cl)cc31)CC2 [Compound A, 8-[3-(2-chloro-10H-phenothiazin-10-yl)propyl]-3-methyl-4-methylene-2-oxo-1-oxa-3,8-diazaspiro[4,5]decane]	0.6 mg/kg	6 mg/kg	-8.8 C°	1.7 mg/kg	353 mg/kg
C=C1N(CC)C(=O)OC12CCN(CCCN1c3ccccc3Sc3ccc(C(F)(F)F)cc31)CC2 [D, 3-ethyl-4-methylene-2-oxo-8-[3-(2-trifluoromethyl-10H-phenothiazin-10-yl)propyl]-1-oxa-3,8-diazaspiro[4,5]decane]	4.1 mg/kg	6.8 mg/kg	-8.2 C°	2.5 mg/kg	500 mg/kg
C=C1N(CCC)C(=O)OC12CCN(CCCN1c3ccccc3Sc3ccc(Cl)cc31)CC2 [E]	1.8 mg/kg	10.6 mg/kg	-5.6 C°	2 mg/kg	
CN1C(=O)OC2(CCN(CCCN3c4ccccc4Sc4ccc(Cl)cc43)CC2)C1(C)O (centres unmarked) [F, 8-[3-(2-chloro-10H-phenothiazin-10-yl)propyl]-3,4-dimethyl-4-hydroxy-2-oxo-1-oxa-3,8-diazaspiro[4,5]decane]	0.7 mg/kg	4.6 mg/kg	-9.1 C°		
CCN1C(=O)OC2(CCN(CCCN3c4ccccc4Sc4ccc(Cl)cc43)CC2)C1(C)O (centres unmarked) [G, 8[3-(2-chloro-10H-phenothiazin-10-yl)propyl]-3-ethyl-4-hydroxy-4-methyl-2-oxo-1-oxa-3,8-diazaspiro[4,5]decane]	2.4 mg/kg	6.9 mg/kg	-8.1 C°		
CN1C(=O)OC2(CCN(CCCN3c4ccccc4Sc4ccc(C(F)(F)F)cc43)CC2)C1(C)O (centres unmarked) [H, 3,4-dimethyl-4-hydroxy-2-oxo-8-[3-(2-trifluoromethyl-10H-phenothiazin-10-yl)propyl]-1-oxa-3,8-diazaspiro[4,5]decane]	0.9 mg/kg	3.1 mg/kg	-9.6 C°		
CCCN1C(=O)OC2(CCN(CCCN3c4ccccc4Sc4ccc(C(F)(F)F)cc43)CC2)C1(C)O (centres unmarked) [I, 4-hydroxy-4-methyl-2-oxo-3-propyl-8-[3-(2-trifluoromethyl-10H-phenothiazin-10-yl)propyl]-1-oxa-3,8-diazaspiro[4,5]decane]	4.2 mg/kg	5.6 mg/kg	-7.0 C°		
